Measured values from ChEMBL document CHEMBL1137057 (Bioorg Med Chem Lett, 2004).

What was measured:
[1] = molecular target: T1, Neuronal acetylcholine receptor; alpha4/beta2 (Rattus norvegicus, UniProt P09483+P12390); experiment: Inhibition of [3H]cytisine binding to Nicotinic acetylcholine receptor alpha4-beta2 of rat cortical membranes; type: cell membranes, Membrane
[2] = molecular target: T1, Neuronal acetylcholine receptor; alpha4/beta2; experiment: Inhibition of [3H]nicotine binding to Nicotinic acetylcholine receptor alpha4-beta2 of rat cortical membranes; type: cell membranes, Membrane
[3] = molecular target: Neuronal acetylcholine receptor subunit alpha-7 (Rattus norvegicus, UniProt Q05941); experiment: Inhibition of [3H]-BTX binding to Nicotinic acetylcholine receptor alpha-7 of rat hippocampal membranes; type: cell membranes, Membrane
[4] = species on record: Mus musculus; experiment: Effective concentration in antinociception activity in mouse tail flick test; type: functional, organism-based
[5] = molecular target: T1, Neuronal acetylcholine receptor; alpha4/beta2; experiment: Inhibition of [3H]epibatidine binding to Nicotinic acetylcholine receptor alpha4-beta2 of rat cortical membranes; type: cell membranes, Membrane

Neuronal acetylcholine receptor subunit alpha-7, sequence (Q05941 whole entry): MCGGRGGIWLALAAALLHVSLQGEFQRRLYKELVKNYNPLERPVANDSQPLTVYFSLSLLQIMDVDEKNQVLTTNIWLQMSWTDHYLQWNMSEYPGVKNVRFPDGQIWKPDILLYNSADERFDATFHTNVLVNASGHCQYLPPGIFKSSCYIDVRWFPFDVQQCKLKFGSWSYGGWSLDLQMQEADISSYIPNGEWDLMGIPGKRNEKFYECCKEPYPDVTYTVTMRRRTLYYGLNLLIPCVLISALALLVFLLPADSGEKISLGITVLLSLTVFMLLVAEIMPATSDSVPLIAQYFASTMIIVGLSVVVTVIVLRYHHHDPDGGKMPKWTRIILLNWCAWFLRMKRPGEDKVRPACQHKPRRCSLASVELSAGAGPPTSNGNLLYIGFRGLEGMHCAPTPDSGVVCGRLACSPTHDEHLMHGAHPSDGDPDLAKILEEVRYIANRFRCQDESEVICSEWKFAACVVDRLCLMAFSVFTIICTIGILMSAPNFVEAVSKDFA
T1 sequence (P09483 whole entry): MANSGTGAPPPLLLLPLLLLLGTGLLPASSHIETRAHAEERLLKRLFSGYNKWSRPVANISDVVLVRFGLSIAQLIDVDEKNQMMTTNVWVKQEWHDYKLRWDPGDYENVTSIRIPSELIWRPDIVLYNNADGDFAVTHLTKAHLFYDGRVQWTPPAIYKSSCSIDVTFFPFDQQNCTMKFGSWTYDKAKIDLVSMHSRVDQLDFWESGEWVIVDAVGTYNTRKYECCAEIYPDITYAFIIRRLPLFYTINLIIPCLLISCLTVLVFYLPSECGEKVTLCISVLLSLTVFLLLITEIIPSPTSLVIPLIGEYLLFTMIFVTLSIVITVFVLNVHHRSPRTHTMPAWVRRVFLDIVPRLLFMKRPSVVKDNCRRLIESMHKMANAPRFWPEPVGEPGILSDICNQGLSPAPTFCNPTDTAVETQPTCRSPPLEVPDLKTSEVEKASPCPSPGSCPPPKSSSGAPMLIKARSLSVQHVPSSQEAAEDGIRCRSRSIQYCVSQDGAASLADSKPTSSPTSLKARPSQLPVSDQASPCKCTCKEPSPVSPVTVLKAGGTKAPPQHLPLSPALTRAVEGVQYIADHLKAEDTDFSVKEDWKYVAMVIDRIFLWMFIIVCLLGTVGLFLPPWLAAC
T1 sequence (P12390 whole entry): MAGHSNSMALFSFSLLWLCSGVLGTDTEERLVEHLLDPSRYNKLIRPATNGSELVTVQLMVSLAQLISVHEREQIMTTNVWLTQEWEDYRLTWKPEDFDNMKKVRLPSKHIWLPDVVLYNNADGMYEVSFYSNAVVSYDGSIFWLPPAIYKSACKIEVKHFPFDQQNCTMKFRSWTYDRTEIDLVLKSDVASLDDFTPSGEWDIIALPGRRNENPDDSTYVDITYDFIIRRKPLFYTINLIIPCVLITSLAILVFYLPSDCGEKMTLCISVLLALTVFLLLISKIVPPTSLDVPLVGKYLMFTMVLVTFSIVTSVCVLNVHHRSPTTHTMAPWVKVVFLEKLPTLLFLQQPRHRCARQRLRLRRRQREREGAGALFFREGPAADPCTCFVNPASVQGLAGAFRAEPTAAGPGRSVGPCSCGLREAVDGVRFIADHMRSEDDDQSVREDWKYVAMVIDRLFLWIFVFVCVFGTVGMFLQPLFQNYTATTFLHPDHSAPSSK

## Clc1ccc(C2CC3CNC32)cn1 (stereo not given)
[1]
  Ki: 3.9 nM

## Clc1ccc(C2CC3CNC2C3)cn1 (stereo not given)
[2]
  Ki: > 38 nM
[3]
  Ki: 1600 nM
[1]
  Ki: 6.6 nM

## Clc1ccc(C2CC3NCC32)cn1 (stereo not given)
[1]
  Ki: 5 nM

## Clc1ccc([C@@H]2CC3CC2CN3)cn1 (stereo not given in full)
[2]
  Ki: 0.05 nM
[3]
  Ki: 6.3 nM

## Clc1ccc([C@@H]2CC3CNC2C3)cn1 (stereo not given in full)
[2]
  Ki: 0.04 nM
[3]
  Ki: 3.9 nM
[1]
  Ki: 0.03 nM

## Clc1ccc(C2CC3CCC2NC3)cn1 (stereo not given)
[1]
  Ki: 0.47 nM
[4]
  EC50: 0.04 mg/kg

## Clc1ccc(C2CC3CC2CN3)cn1 (stereo not given)
[2]
  Ki: > 38 nM
[3]
  Ki: 3300 nM
[1]
  Ki: 30 nM

## Clc1ccc(C2CCC3CCC2N3)cn1 (stereo not given)
[5]
  Ki: 1.6 nM

## Clc1ccc(C2CC3CCCCC2N3)cn1 (single isomer, unassigned; (-))
[2]
  Ki: 0.35 nM

## Clc1ccc(C2CC3CCCCC2N3)cn1 (stereo in doubt; 16 (+))
[2]
  Ki: 0.13 nM

## Clc1ccc(C2CC3CCCCC2N3)cn1 (stereo in doubt; 17)
[2]
  Ki: 1.25 nM

## Clc1ccc(C2CC3CCC2N3)cn1 (stereo not given) [EPIBATIDINE]
[4]
  EC50: 0.01 mg/kg
